Results on four compounds are retold here after ChEMBL document CHEMBL4715829, “Heterodimeric Rifampicin-Tobramycin conjugates break intrinsic resistance of Pseudomonas aeruginosa to doxycycline and chloramphenicol in vitro and in a Galleria mellonella in vivo model” (Eur J Med Chem, 2019).

Assay [1] concerns Pseudomonas aeruginosa. Put plainly: Antibacterial activity against Pseudomonas aeruginosa 100036 assessed as fractional inhibitory concentration incubated for 18 hrs in presence of chloramphenicol by broth microdilution assay. It is filed as functional. In general terms: Dilution methods test growth across graded concentrations, often in twofold steps.
Assay [2] deals with Pseudomonas aeruginosa. The assay can be described thus: Antibacterial activity against Pseudomonas aeruginosa 264-101354 assessed as reduction in bacterial growth by measuring chloramphenicol MIC at 8 ug/ml incubated for 18 hrs in presence of chloramphenicol by broth microdilution assay (reference value: 4096 ug/ml). To be noted: dose 8 µg/ml. It is filed as functional.
In assay [3] the test system is Pseudomonas aeruginosa. Put plainly: Antibacterial activity against Pseudomonas aeruginosa 264-101354 assessed as fractional inhibitory concentration incubated for 18 hrs in presence of chloramphenicol by broth microdilution assay. It is filed as functional.
The test system of assay [4] is Pseudomonas aeruginosa. Put plainly: Antibacterial activity against Pseudomonas aeruginosa 260-97103 assessed as fractional inhibitory concentration index incubated for 18 hrs in presence of rifampicin by broth microdilution assay. Type of assay: functional.
Assay [5] concerns Pseudomonas aeruginosa. The assay can be described thus: Potentiation of doxycycline-induced antibacterial activity against Pseudomonas aeruginosa 264-101354 incubated for 18 hrs in presence of doxycycline by broth microdilution assay. To be noted: dose 1-32 µg/ml. Type of assay: functional, organism-based.
Assay [6] has as its system Escherichia coli. Put plainly: Antibacterial activity against Escherichia coli ATCC 25922 assessed as potentiation of chloramphenicol-induced antibacterial activity by measuring chloramphenicol MIC at 10 uM incubated for 18 hrs in presence of chloramphenicol by broth microdilution assay (reference value: 2 ug/ml). It is filed as functional.
Assay [7] deals with Klebsiella pneumoniae. The assay can be described thus: Antibacterial activity against Klebsiella pneumoniae ATCC 16381 assessed as potentiation of doxycycline-induced antibacterial activity by measuring doxycycline MIC at 10 uM incubated for 18 hrs in presence of doxycycline by broth microdilution assay (reference value: 128 ug/ml). Type of assay: functional.
For assay [8], the system named is Acinetobacter baumannii. Put plainly: Antibacterial activity against Acinetobacter baumannii ATCC 17978 assessed as reduction in bacterial growth incubated for 18 hrs by broth microdilution assay. It is filed as functional.
Assay [9] deals with Pseudomonas aeruginosa. The assay can be described thus: Potentiation of chloramphenicol-induced antibacterial activity against Pseudomonas aeruginosa PAO1 incubated for 18 hrs in presence of chloramphenicol by broth microdilution assay. Type of assay: functional, organism-based. The settings on record: dose 1-32 µg/ml.
For assay [10], the system named is Pseudomonas aeruginosa. The assay can be described thus: Antibacterial activity against Pseudomonas aeruginosa 101885 assessed as fractional inhibitory concentration index in presence of chloramphenicol incubated for 18 hrs by broth microdilution assay. It is filed as functional.
Assay [11] concerns Pseudomonas aeruginosa. The assay can be described thus: Potentiation of chloramphenicol-induced antibacterial activity against Pseudomonas aeruginosa 259-96918 assessed as fold change in chloramphenicol MIC at 9.8 uM incubated for 18 hrs in presence of chloramphenicol by broth microdilution assay relative to control. Type of assay: functional.
Assay [12] concerns Pseudomonas aeruginosa. Put plainly: Antibacterial activity against Pseudomonas aeruginosa 259-96918 assessed as potentiation of doxycycline-induced antibacterial activity by measuring doxycycline MIC at 9.8 uM incubated for 18 hrs in presence of doxycycline by broth microdilution assay (reference value: 32 ug/ml). It is filed as functional.
Assay [13] concerns Pseudomonas aeruginosa. Put plainly: Potentiation of doxycycycline-induced bactericidal activity against Pseudomonas aeruginosa PAO1 assessed as bacterial viability at 9.8 microM incubated for 9 hrs in LB medium in presence of doxycycline followed by plating on agar plate and measured after 20 hrs by time-kill assay. The settings on record: time 29 hrs. Type of assay: functional.

Assay [14] deals with Klebsiella pneumoniae. Put plainly: Antibacterial activity against Klebsiella pneumoniae ATCC 16381 assessed as reduction in bacterial growth incubated for 18 hrs by broth microdilution assay. Type of assay: functional.
The subject of assay [15] is Escherichia coli. Put plainly: Antibacterial activity against Escherichia coli ATCC 25922 assessed as fractional inhibitory concentration index in presence of chloramphenicol incubated for 18 hrs by broth microdilution assay. It is filed as functional.
The test system of assay [16] is Enterobacter cloacae. The assay can be described thus: Antibacterial activity against Enterobacter cloacae ATCC 117029 assessed as reduction in bacterial growth incubated for 18 hrs by broth microdilution assay. Type of assay: functional.
Assay [17] has as its system Klebsiella pneumoniae. Put plainly: Antibacterial activity against Klebsiella pneumoniae ATCC 16381 assessed as fractional inhibitory concentration index in presence of chloramphenicol incubated for 18 hrs by broth microdilution assay. Type of assay: functional.
Assay [18] deals with Acinetobacter baumannii. The assay can be described thus: Antibacterial activity against Acinetobacter baumannii ATCC 17978 assessed as potentiation of chloramphenicol-induced antibacterial activity by measuring chloramphenicol MIC at 10 uM incubated for 18 hrs in presence of chloramphenicol by broth microdilution assay (reference value: 64 ug/ml). Type of assay: functional.

Assay [19] deals with Escherichia coli. The assay can be described thus: Antibacterial activity against Escherichia coli ATCC 25922 assessed as fractional inhibitory concentration index in presence of doxycycline incubated for 18 hrs by broth microdilution assay. It is filed as functional.
Assay [20] has as its system Pseudomonas aeruginosa. The assay can be described thus: Potentiation of doxycycline-induced antibacterial activity against Pseudomonas aeruginosa PAO1 incubated for 18 hrs in presence of doxycycline by broth microdilution assay. It is filed as functional, organism-based. To be noted: dose 1-32 µg/ml.
Assay [21] concerns Pseudomonas aeruginosa. Put plainly: Potentiation of doxycycline-induced antibacterial activity against Pseudomonas aeruginosa 260-97103 incubated for 18 hrs in presence of doxycycline by broth microdilution assay. Type of assay: functional, organism-based. To be noted: dose 1-32 µg/ml.
Assay [22] concerns Pseudomonas aeruginosa. Put plainly: Antibacterial activity against Pseudomonas aeruginosa 101885 assessed as potentiation of chloramphenicol-induced antibacterial activity by measuring chloramphenicol MIC at 9.8 uM incubated for 18 hrs in presence of chloramphenicol by broth microdilution assay (reference value: 512 ug/ml). It is filed as functional.
For assay [23], the system named is Enterobacter cloacae. Put plainly: Potentiation of chloramphenicol-induced antibacterial activity against Enterobacter cloacae ATCC 117029 assessed as fold change in chloramphenicol MIC at 9.8 uM incubated for 18 hrs in presence of chloramphenicol by broth microdilution assay relative to control. It is filed as functional.
For assay [24], the system named is Enterobacter cloacae. The assay can be described thus: Antibacterial activity against Enterobacter cloacae ATCC 117029 assessed as potentiation of doxycycline-induced antibacterial activity by measuring doxycycline MIC at 10 uM incubated for 18 hrs in presence of doxycycline by broth microdilution assay (reference value: 64 ug/ml). Type of assay: functional.
Assay [25] concerns Escherichia coli. Put plainly: Antibacterial activity against Escherichia coli ATCC 25922 assessed as potentiation of doxycycline-induced antibacterial activity by measuring doxycycline MIC at 10 uM incubated for 18 hrs in presence of doxycycline by broth microdilution assay (reference value: 0.5 ug/ml). Type of assay: functional.
Assay [26] deals with Pseudomonas aeruginosa. Put plainly: Potentiation of chloramphenicol-induced bactericidal activity against Pseudomonas aeruginosa PAO1 assessed as reduction in bacterial colonies incubated for >= 24 hrs in LB medium in presence of chloramphenicol followed by plating on agar plate and measured after 20 hrs by time-kill assay. Type of assay: functional, organism-based. To be noted: dose 4.9-9.8 µM, time hrs >=44.

Assay [27] deals with Pseudomonas aeruginosa. Put plainly: Antibacterial activity against Pseudomonas aeruginosa 101243 assessed as fractional inhibitory concentration index incubated for 18 hrs in presence of rifampicin by broth microdilution assay. It is filed as functional.
In assay [28] the test system is Pseudomonas aeruginosa. The assay can be described thus: Potentiation of doxycycline-induced antibacterial activity against Pseudomonas aeruginosa 260-97103 assessed as fold change in doxycycline MIC at 9.8 uM incubated for 18 hrs in presence of doxycycline by broth microdilution assay relative to control. It is filed as functional.
Assay [29] has as its system Pseudomonas aeruginosa. Put plainly: Potentiation of doxycycline-induced antibacterial activity against Pseudomonas aeruginosa 114228 assessed as fold change in doxycycline MIC at 7.6 uM incubated for 18 hrs in presence of doxycycline by broth microdilution assay relative to control. It is filed as functional.
The test system of assay [30] is Pseudomonas aeruginosa. The assay can be described thus: Potentiation of chloramphenicol-induced antibacterial activity against Pseudomonas aeruginosa 91433 assessed as fold change in chloramphenicol MIC at 7.6 uM incubated for 18 hrs in presence of chloramphenicol by broth microdilution assay relative to control. Type of assay: functional.
In assay [31] the test system is Pseudomonas aeruginosa. Put plainly: Antibacterial activity against Pseudomonas aeruginosa 262-101856 assessed as potentiation of doxycycline-induced antibacterial activity by measuring doxycycline MIC at 7.6 uM incubated for 18 hrs in presence of doxycycline by broth microdilution assay (reference value: 1024 ug/ml). Type of assay: functional.

For the compound `NC[C@H]1O[C@H](O[C@H]2[C@H](O)[C@@H](O[C@H]3O[C@H](CO)[C@@H](O)[C@H](N)[C@H]3O)[C@H](N)C[C@@H]2N)[C@H](N)C[C@@H]1O` [TOBRAMYCIN], the FIC in [1] and in assay [3] was 0.5 each time. Also, the minimum inhibitory concentration (MIC) in [2] is 4100 µg/mL.
Consider `CO[C@H]1/C=C/O[C@@]2(C)Oc3c(C)c(O)c4c(O)c(c(/C=N/N5CCN(C)CC5)c(O)c4c3C2=O)NC(=O)/C(C)=C\C=C\[C@H](C)[C@H](O)[C@@H](C)[C@@H](O)[C@@H](C)[C@H](OC(C)=O)[C@@H]1C` [RIFAMPIN], for which the FIC in assay [1] and in assay [3] was 0.5 each time.
Take `CO[C@H]1/C=C/O[C@@]2(C)Oc3c(C)c(O)c4c(O)c(c(/C=N/N5CCN(Cc6cn(CCCCCCO[C@@H]7[C@@H](O[C@H]8O[C@H](CO)[C@@H](O)[C@H](N)[C@H]8O)[C@H](N)C[C@H](N)[C@H]7O[C@H]7O[C@H](CN)[C@@H](O)C[C@H]7N)nn6)CC5)c(O)c4c3C2=O)NC(=O)/C(C)=C\C=C\[C@H](C)[C@H](O)[C@@H](C)[C@@H](O)[C@@H](C)[C@H](OC(C)=O)[C@@H]1C.Cl.Cl.Cl.Cl.Cl`: the “fractional inhibitory concentration index (FICI)” value in assay [4] is listed as less than 0.16; in assay [10] it was 0.078; in [15], 0.75; in assay [17], less than 0.375; in assay [19] it was 0.5; in assay [27], 0.56. Further, the Activity entry was “Dose-dependent effect” in [5]; “Dose-dependent effect” in assay [9]; less than 10 CFU/ml in assay [13]; “Dose-dependent effect” in assay [20]; “Dose-dependent effect” in assay [21]; “Dose-dependent effect” in [26]. In addition, the MIC in [6] is 1 µg/mL; in assay [7], 64 µg/mL; in assay [8] it was 64 µg/mL; in assay [12], 1 µg/mL; in assay [14] it was greater than 128 µg/mL; in [16], 16 µg/mL. In addition, the MIC is 32 µg/mL in [18], 8 µg/mL in assay [22], 16 µg/mL in assay [24] and 0.125 µg/mL in assay [25]. Moreover, the “fold change (FC)” value in [11] is 4; in assay [23] it was 0; in [28], 4.
For `CO[C@H]1/C=C/O[C@@]2(C)Oc3c(C)c(O)c4c(O)c(c(/C=N/N5CCN(Cc6cn(CCCCCCCCCCCCO[C@@H]7[C@@H](O[C@H]8O[C@H](CO)[C@@H](O)[C@H](N)[C@H]8O)[C@H](N)C[C@H](N)[C@H]7O[C@H]7O[C@H](CN)[C@@H](O)C[C@H]7N)nn6)CC5)c(O)c4c3C2=O)NC(=O)/C(C)=C\C=C\[C@H](C)[C@H](O)[C@@H](C)[C@@H](O)[C@@H](C)[C@H](OC(C)=O)[C@@H]1C.O=C(O)C(F)(F)F.O=C(O)C(F)(F)F.O=C(O)C(F)(F)F.O=C(O)C(F)(F)F.O=C(O)C(F)(F)F`, the “fold change (FC)” value in [29] and in assay [30] was 4 in each case. In addition, the Activity result in [5], in [9], in assay [20] and in [21] was “Dose-dependent effect” in each case. The minimal inhibitory concentration (MIC) in assay [6] is 1 µg/mL; in assay [7], 64 µg/mL; in assay [8], 64 µg/mL; in [31], 8 µg/mL; in assay [14], greater than 128 µg/mL; in assay [16], 16 µg/mL. The MIC in assay [18] was found to be 64 µg/mL; in [24], 32 µg/mL; in assay [25] it was 0.25 µg/mL. For the same compound, the “fractional inhibitory concentration index (FICI)” value is listed as 0.07 in [10], 0.625 in [15], less than 0.281 in [17] and 0.625 in assay [19].

The term MIC denotes the lowest concentration that inhibits growth of the organism.
